Data: patent US20090227619A1, “Harmine derivatives, intermediates used in their preparations, preparation processes and use therefo” (priority 2003, published 2009)
Read-outs that look alike come from different tables or passages of the source.

Experiments:
Kunming mice = conditions: single i.p.
Description: (§2) Five grades of dosages for each sample according to the results of the preliminary test, each dosage being 0.8 larger than the previous one
(§3) During the experiment, each sample was added a small amount of Tween-80 to facilitate dissolution after the sample was weighed, and then 0.5% CMC-Na solution was gradually added to achieve the desired concentration. The experimental volume was 0.5 ml/20 g mouse.
(§4) Single injection via intraperitoneal (i.p.) to different groups mice.
(§5) Kunming mice were divided into different groups randomly according to their sex. The medicament was intraperitoneally administered to each group of mice according to the dosage setting. After the administration of the medicaments, mice were observed continuously for the first 2 h for any gross behavioral changes and deaths. Dead animals were dissected and examined for any possible organ damage. […] Conditions of animals died within two week were recorded. After two weeks, all survived animals were sacrificed and checked macroscopically for possible damage to the heart, liver, kidneys and so on. Viscera that had substantive pathological changes were pathologically examined.

Hela = test: In vitro cytotoxicity, IC50 by MTT method, Hela; format: cell-based; conditions: Homo sapiens; Hela cell strain; read-out: IC50 Hela
Outline: (§1)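 MTT viability, 48 h exposure: cells 10^5/ml in RPMI1640 + 10% FBS, 37 °C/5% CO2; MTT 4 h, DMSO solubilisation, A490.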

CT-DNA [1] = test: UV absorption spectrum method with CT-DNA; format: binding; conditions: CT-DNA 40 ug/ml, compound 20 uM, 37° C. for 2 h, OD at 260 nm
Description: Compounds to be tested (20 uM) were added into the PE buffer solution, and its scan curve was identified by the spectrograph at a wavelength of from 200 to 400 nm. CT-DNA (40 ug/ml) and compounds to be tested (20 uM) were added into the PE buffer solution. The mixture was cultured at 37° C. for 2 h, and its scan curve was identified by the UV spectrograph at a wavelength of from 200 to 400 nm. […] After that, the OD value at 260 nm of the scan curve of the medicaments tested and that of the CT-DNA mixture OD value at 260 nm of the scan curve were calculated and compared to determine the influences of the medicaments tested on the UV absorption spectrum of the DNA molecules.

NIH3T3 = test: In vitro cytotoxicity, IC50 by MTT method, NIH3T3; format: cell-based; conditions: Mus musculus; NIH3T3 cell strain; read-out: IC50 NIH3T3
Outline: as §1

Bel-7402 = test: In vitro cytotoxicity, IC50 by MTT method, Bel-7402; format: cell-based; conditions: Homo sapiens, Bel-7402; Bel7402 cell strain; read-out: IC50 Bel7402
Outline: as §1

Lewis lung cancer = conditions: Lewis lung cancer; for Body weight of the animals, end, First time / Body weight of the animals, end, Second time: ip × 10qd;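 on all read-outs here: mice implanted subcutaneously in the axilla with Lewis lung tumor cells, treated starting the following day, killed roughly three weeks after implantation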
S180 sarcoma = conditions: S180 sarcoma; for Body weight of the animals, beginning, First time / Body weight of the animals, end, First time / Inhibition rate, First time / Weight of the tumor X ± SD, First time / Body weight of the animals, beginning, Second time / Body weight of the animals, end, Second time / Inhibition rate, Second time: ip × 10qd
HepG2 = test: In vitro cytotoxicity, IC50 by MTT method, HepG2; format: cell-based, human; conditions: Homo sapiens; HepG2 cell strain; read-out: IC50 HepG2
Outline: as §1

BGC-823 = test: In vitro cytotoxicity, IC50 by MTT method, BGC-823; format: cell-based; conditions: Homo sapiens, BGC-823; BGC823 cell strain; read-out: IC50 BGC823
Outline: as §1

in vivo = conditions: both, mouse, ip
Description: as §2, §3, §4, §5

Lovo = test: In vitro cytotoxicity, IC50 by MTT method, Lovo; format: cell-based; conditions: Homo sapiens; Lovo cell strain; read-out: IC50 Lovo
Outline: as §1

PLA-801 = test: In vitro cytotoxicity, IC50 by MTT method, PLA-801; format: cell-based; conditions: PLA-801 cell strain; read-out: IC50 PLA-801
Outline: as §1

CT-DNA [2] = test: DNA thermal denaturation, determination of ΔTm; format: binding; conditions: 20 uM compound, Tm of CT-DNA alone 61° C.
Outline: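 CT-DNA at 15 ug/ml in PE buffer (1 mM Na2HPO4, 0.1 mM EDTA, pH 7.6), heated at 0.5° C./min from 25 to 95° C. Tm taken as hyperchromic transition mid-point; ΔTm = Tm of drug-DNA complex minus Tm of DNA alone, mean of three runs.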
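Wherever Death rate is given: acute toxicity in Kunming mice grouped by sex, one intraperitoneal dose at five graded levels in Tween-80 plus 0.5% CMC-Na, deaths monitored over two weeks.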
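Wherever MTD is given: acute toxicity in Kunming mice grouped by sex, one intraperitoneal dose at five graded levels in Tween-80 plus 0.5% CMC-Na, deaths monitored over two weeks.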

Molecule CCCCn1c2ccccc2c2cc(C(=O)O)ncc21 [Compound 36, 9-butyl-β-carboline-3-carboxylic acid] has a Death rate (Kunming mice; 50% male 50% female mice, 240 mg/kg) of 0, a Death rate (Kunming mice; 50% male 50% female mice, 300 mg/kg) of 30 and a Death rate (Kunming mice; female mice, 240 mg/kg) of 0. The Death rate (Kunming mice; female mice, 300 mg/kg) was 40, the Death rate (Kunming mice; male mice, 240 mg/kg) was 0 and the Death rate (Kunming mice; male mice, 300 mg/kg) was 20. The IC50 (Hela) was 60 µM, the “Influence on the UV absorption of DNA” value (CT-DNA [1]) was “increase the UV absorption of DNA” and the IC50 (NIH3T3) was 20 µM. For the same molecule, the IC50 (Bel-7402) was 90 µM, the “Body weight of the animals, end, First time” value (“Body weight … end, First time” below) (Lewis lung cancer; Dosage 50 (mg/ml)) was 25.6 g and the “Body weight of the animals, end, Second time” value (from here on “Body weight … end, Second time”) (Lewis lung cancer; Dosage 50 (mg/ml)) was 25.3 g. For the same molecule, the “Body weight of the animals, beginning, First time” value (Lewis lung cancer; Dosage 50, ip × 10qd) was 18.8 g, the “Inhibition rate, First time” value (Lewis lung cancer; Dosage 50, ip × 10qd) was 31.74% and the “Weight of the tumor X ± SD, First time” value (Lewis lung cancer; Dosage 50, ip × 10qd) was 2.00 ± 0.28 g. The “Body weight of the animals, beginning, Second time” value (Lewis lung cancer; Dosage 50, ip × 10qd) was 20.1 g, the “Inhibition rate, Second time” value (Lewis lung cancer; Dosage 50, ip × 10qd) was 31.69% and the “Weight of the tumor X ± SD, Second time” value (Lewis lung cancer; Dosage 50, ip × 10qd) was 1.66 ± 0.17 g. The “Body weight … end, First time” value (Lewis lung cancer; Dosage 100 (mg/ml)) was 25.2 g, the “Body weight … end, Second time” value (Lewis lung cancer; Dosage 100 (mg/ml)) was 25.0 g and the “Body weight of the animals, beginning, First time” value (Lewis lung cancer; Dosage 100, ip × 10qd) was 19.3 g. The “Inhibition rate, First time” value (Lewis lung cancer; Dosage 100, ip × 10qd) was 41.98%, the “Weight of the tumor X ± SD, First time” value (Lewis lung cancer; Dosage 100, ip × 10qd) was 1.70 ± 0.17 g and the “Body weight of the animals, beginning, Second time” value (Lewis lung cancer; Dosage 100, ip × 10qd) was 20.1 g. The “Inhibition rate, Second time” value (Lewis lung cancer; Dosage 100, ip × 10qd) was 46.91%, the “Weight of the tumor X ± SD, Second time” value (Lewis lung cancer; Dosage 100, ip × 10qd) was 1.29 ± 0.13 g and the “Inhibition rate (%) Lewis cancer” value (Lewis lung cancer; comparison table 43, in vivo) was 46.91%. For the same molecule, the “Body weight of the animals, beginning, First time” value (S180 sarcoma; Dosage 50 (mg/ml)) was 19.1 g, the “Body weight … end, First time” value (S180 sarcoma; Dosage 50 (mg/ml)) was 24.9 g and the “Inhibition rate, First time” value (S180 sarcoma; Dosage 50 (mg/ml)) was 29.96%. The “Weight of the tumor X ± SD, First time” value (S180 sarcoma; Dosage 50 (mg/ml)) was 1.87 ± 0.16 g, the “Body weight of the animals, beginning, Second time” value (S180 sarcoma; Dosage 50 (mg/ml)) was 18.3 g and the “Body weight … end, Second time” value (S180 sarcoma; Dosage 50 (mg/ml)) was 25.3 g. For the same molecule, the “Inhibition rate, Second time” value (S180 sarcoma; Dosage 50 (mg/ml)) was 31.11%, the “Weight of the tumor X ± SD, Second time” value (S180 sarcoma; Dosage 50, ip × 10qd) was 1.86 ± 0.28 g and the “Body weight of the animals, beginning, First time” value (S180 sarcoma; Dosage 100 (mg/ml)) was 19.0 g. For the same molecule, the “Body weight … end, First time” value (S180 sarcoma; Dosage 100 (mg/ml)) was 24.5 g, the “Inhibition rate, First time” value (S180 sarcoma; Dosage 100 (mg/ml)) was 43.07% and the “Weight of the tumor X ± SD, First time” value (S180 sarcoma; Dosage 100 (mg/ml)) was 1.52 ± 0.15 g. The “Body weight of the animals, beginning, Second time” value (S180 sarcoma; Dosage 100 (mg/ml)) was 18.7 g, the “Body weight … end, Second time” value (S180 sarcoma; Dosage 100 (mg/ml)) was 25.5 g and the “Inhibition rate, Second time” value (S180 sarcoma; Dosage 100 (mg/ml)) was 40.00%. For the same molecule, the “Weight of the tumor X ± SD, Second time” value (S180 sarcoma; Dosage 100, ip × 10qd) was 1.62 ± 0.12 g, the “Inhibition rate (%) S180 sarcomata” value (S180 sarcoma; comparison table 43, in vivo) was 43.07% and the IC50 (HepG2) was 170 µM. The IC50 (BGC-823) was 120 µM, the MTD at 2 weeks (in vivo) was over 300 mg/kg and the IC50 (Lovo) was 10 µM. The IC50 (PLA-801) was 90 µM, the ΔTm (CT-DNA [2]; CT-DNA 15 ug/ml, PE buffer pH 7.6) was −1.5 °C and the ΔTm (CT-DNA [2]; CT-DNA thermal denaturation) was −1.5 °C.
